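Cultured in 96-well plates, cells were exposed to test compound for 48 hours across five concentrations. Here, GI50 denotes the concentration required for 50% inhibition of growth. TGI denotes the concentration required for complete inhibition of growth.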 Bounds are passed on as bounds.

The first test has as its system OVCAR-8 ovarian. In words: NCI tumour cell line growth inhibition, 48 h.
As for `COc1cc(Cc2cnc(/N=C3\C(=O)N(CN4CCN(c5c(F)cc6c(=O)c(C(=O)O)cn(C7CC7)c6c5OC)CC4C)c4ccc(F)cc43)nc2N)cc(OC)c1OC` (stereo unspecified), the GI50 is 32.1 µM and the TGI was > 100 µM.

`COc1cc(/C=N/NC(=O)c2ccc(C(F)(F)F)nc2Nc2ccc(Cl)cc2C)ccc1O`: the GI50 was 1.6 µM and the TGI was determined as 13.5 µM.

On to `COC1CCC2C(NS(=O)(=O)c3ccc(C)cc3)CCCC2O1` (stereo unspecified) (tested in a mixture with another compound), for which the TGI is > 34.5 µM.

With `NNC(=O)Nc1cccnc1`, the TGI is > 100 µM.

Consider `Cc1cc(C)nc(NS(=O)(=O)c2ccc(NC(=O)c3ccc(Cl)c4c(Nc5ccc(S(=O)(=O)Nc6nc(C)cc(C)n6)cc5)c5ccccc5nc34)cc2)n1`, for which the TGI is > 100 µM.

`O=S1(=O)c2ccccc2NC(c2ccc3ccccc3c2)CC1c1ccccc1F` (stereo unspecified): the TGI is > 100 µM.

As for `CCCCCN(CCCCC)CCCNc1c2c(nc3ccc(Cl)cc13)CCCC2`, the GI50 is 2.9 µM and the TGI turned out to be 8.88 µM.

The next test deals with SF-539 CNS. The test can be described thus: NCI tumour cell line growth inhibition, 48 h.
Take `O=C(O)c1ccccc1[Se][Se]c1ccccc1C(=O)O`: the TGI was > 100 µM.

In turn, `CC(C)=CC(=O)C1c2cccc(O)c2C(=O)c2c(O)cc(C)cc21` (stereo unspecified) gave a TGI of 3.04 µM.

With `O=C(O)CCc1coc2ccc(O)cc12`, the TGI was > 100 µM.

As for `O=C(Nc1ccccc1)NS(=O)(=O)c1ccc(-n2nc3c(c2-c2cccs2)Cc2ccccc2-3)cc1`, the GI50 was 25 µM and the TGI turned out to be 55.5 µM.

Turning to `Cc1ccc(N=Nc2ccc(N(CCC#N)CCC#N)cc2C)c(Br)c1`, the TGI is > 100 µM.

Regarding `O=CC[C@H]1C(=O)C[C@@H]2CCC[C@@H]21`, the TGI is > 100 µM.

Take `O=C(N/C(=C\c1ccc(/C=C(\NC(=O)c2ccccc2)c2nc3cc([N+](=O)[O-])ccc3[nH]2)cc1)c1nc2cc([N+](=O)[O-])ccc2[nH]1)c1ccccc1`: the TGI is > 100 µM.

For the compound `COC1(OC)CCC2C1C1CCC(OC)(OC)C21` (stereo unspecified), the TGI was > 50 µM.

For the compound `C=C(CN1CCN(c2ccc(Cl)cc2F)CC1)c1ccc(C(=O)Nc2ccccc2N)cc1`, the GI50 is 2.02 µM and the TGI is > 52.8 µM.

In the case of `COc1cc2c(cc1OC)-c1c3cc(O)ccc3nn[n+]1CC2`, the TGI was > 100 µM.

In turn, `CCCCC(=O)OCC(=O)[C@]1(O)Cc2c(O)c3c(c(O)c2[C@@H](OC2CC(NC(=O)C(F)(F)F)C(O)C(C)O2)C1)C(=O)c1c(OC)cccc1C3=O` (stereo partly specified) came in with a TGI of 2.98 µM.

Take `C/C(CC(=O)CCC(=O)Nc1cccc(C(F)(F)F)c1)=N\NC(=O)NN`: the TGI is > 100 µM.

Regarding `CCN(CCO)CC1CCCC2CCCCC21` (stereo unspecified), the TGI was > 100 µM.

With `COc1ccccc1C12OC(=O)C1(C)Oc1ccccc1C2=O` (stereo unspecified), the TGI is > 100 µM.

As to `O=C1C=C(Cl)C(=O)C(c2ccc(Cl)cc2)=C1`, the TGI came out at 32.4 µM.

Regarding `Cn1cc(C2=C(c3cn(C)c4ncccc34)C(=O)NC2=O)c2ccccc21`, the GI50 is 5.35 µM and the TGI is 14.3 µM.

With `COc1cc(Cc2cnc(/N=C3\C(=O)N(CN4CCN(c5c(F)cc6c(=O)c(C(=O)O)cn(C7CC7)c6c5OC)CC4C)c4ccc(F)cc43)nc2N)cc(OC)c1OC` (stereo unspecified), the GI50 is 19.9 µM and the TGI worked out at 47.5 µM.

As for `Clc1cc2nsnc2c(Cl)n1`, the TGI turned out to be 46.1 µM.

For the compound `COc1cc(/C=N/NC(=O)c2ccc(C(F)(F)F)nc2Nc2ccc(Cl)cc2C)ccc1O`, the GI50 is 2.12 µM and the TGI amounted to 7.66 µM.

Turning to `COC1CCC2C(NS(=O)(=O)c3ccc(C)cc3)CCCC2O1` (stereo unspecified) (tested in a mixture with another compound), the TGI was > 34.5 µM.

As for `NNC(=O)Nc1cccnc1`, the TGI is > 100 µM.

Regarding `O=S1(=O)c2ccccc2NC(c2ccc3ccccc3c2)CC1c1ccccc1F` (stereo unspecified), the TGI was > 100 µM.

For the compound `CCCCCN(CCCCC)CCCNc1c2c(nc3ccc(Cl)cc13)CCCC2`, the GI50 is 3.6 µM and the TGI amounted to 13.2 µM.

For a further test, the system named is SNB-75 CNS. In words: NCI tumour cell line growth inhibition, 48 h.
For `O=C(O)c1ccccc1[Se][Se]c1ccccc1C(=O)O`, the TGI is > 100 µM.

`CC(C)=CC(=O)C1c2cccc(O)c2C(=O)c2c(O)cc(C)cc21` (stereo unspecified) showed a TGI of 4.68 µM.

In the case of `O=C(O)CCc1coc2ccc(O)cc12`, the TGI is > 100 µM.

On to `O=C(Nc1ccccc1)NS(=O)(=O)c1ccc(-n2nc3c(c2-c2cccs2)Cc2ccccc2-3)cc1`, for which the GI50 was 70.4 µM and the TGI was > 100 µM.

For the compound `Cc1ccc(N=Nc2ccc(N(CCC#N)CCC#N)cc2C)c(Br)c1`, the TGI was > 100 µM.

On to `O=CC[C@H]1C(=O)C[C@@H]2CCC[C@@H]21`, for which the TGI was > 100 µM.

Regarding `O=C(N/C(=C\c1ccc(/C=C(\NC(=O)c2ccccc2)c2nc3cc([N+](=O)[O-])ccc3[nH]2)cc1)c1nc2cc([N+](=O)[O-])ccc2[nH]1)c1ccccc1`, the TGI was > 100 µM.

`COC1(OC)CCC2C1C1CCC(OC)(OC)C21` (stereo unspecified): the TGI is > 50 µM.

For `C=C(CN1CCN(c2ccc(Cl)cc2F)CC1)c1ccc(C(=O)Nc2ccccc2N)cc1`, the GI50 was 11.4 µM and the TGI was > 46.1 µM.

Take `COc1cc2c(cc1OC)-c1c3cc(O)ccc3nn[n+]1CC2`: the TGI is > 100 µM.

On to `CCCCC(=O)OCC(=O)[C@]1(O)Cc2c(O)c3c(c(O)c2[C@@H](OC2CC(NC(=O)C(F)(F)F)C(O)C(C)O2)C1)C(=O)c1c(OC)cccc1C3=O` (stereo partly specified), for which the TGI was 4.37 µM.

As to `C/C(CC(=O)CCC(=O)Nc1cccc(C(F)(F)F)c1)=N\NC(=O)NN`, the TGI was > 100 µM.

Regarding `CCN(CCO)CC1CCCC2CCCCC21` (stereo unspecified), the TGI was > 100 µM.

Consider `COc1ccccc1C12OC(=O)C1(C)Oc1ccccc1C2=O` (stereo unspecified), for which the TGI was > 100 µM.

Take `O=C1C=C(Cl)C(=O)C(c2ccc(Cl)cc2)=C1`: the TGI was determined as 59.8 µM.

Take `Cn1cc(C2=C(c3cn(C)c4ncccc34)C(=O)NC2=O)c2ccccc21`: the GI50 is 0.669 µM and the TGI is > 23.6 µM.

In the case of `COc1cc(/C=N/NC(=O)c2ccc(C(F)(F)F)nc2Nc2ccc(Cl)cc2C)ccc1O`, the GI50 is 4.79 µM and the TGI was 21.3 µM.

In the case of `COC1CCC2C(NS(=O)(=O)c3ccc(C)cc3)CCCC2O1` (stereo unspecified) (tested in a mixture with another compound), the TGI was > 34.5 µM.

As for `NNC(=O)Nc1cccnc1`, the TGI was > 100 µM.

For the compound `Cc1cc(C)nc(NS(=O)(=O)c2ccc(NC(=O)c3ccc(Cl)c4c(Nc5ccc(S(=O)(=O)Nc6nc(C)cc(C)n6)cc5)c5ccccc5nc34)cc2)n1`, the TGI is > 100 µM.

For the compound `O=S1(=O)c2ccccc2NC(c2ccc3ccccc3c2)CC1c1ccccc1F` (stereo unspecified), the TGI is > 100 µM.

With `CCCCCN(CCCCC)CCCNc1c2c(nc3ccc(Cl)cc13)CCCC2`, the GI50 is 2.38 µM and the TGI amounted to 11.9 µM.
